Reference: ChEMBL document CHEMBL3217454, “Structureactivity relationship studies using peptide arrays: the example of HIV-1 Revintegrase interaction” (Medchemcomm, 2013)
Peptide text beside a SMILES is read from it.

Experiments:
[1] = tested on: Human immunodeficiency virus 1; assay: Binding affinity to HLT-tagged HIV-1 Rev measured after overnight incubation by chemiluminescence analysis relative to IN 174-188; parameters: concentration or dose not given beside the values
[2] = molecular target: Human immunodeficiency virus type 1 integrase (Human immunodeficiency virus 1) (UniProt Q7ZJM1); assay: Binding affinity to HIV-1 integrase measured after overnight incubation by chemiluminescence analysis relative to IN 174-188; parameters: concentration or dose not given beside the values
Sequence of Human immunodeficiency virus type 1 integrase (Human immunodeficiency virus 1) (Q7ZJM1 as listed by the source): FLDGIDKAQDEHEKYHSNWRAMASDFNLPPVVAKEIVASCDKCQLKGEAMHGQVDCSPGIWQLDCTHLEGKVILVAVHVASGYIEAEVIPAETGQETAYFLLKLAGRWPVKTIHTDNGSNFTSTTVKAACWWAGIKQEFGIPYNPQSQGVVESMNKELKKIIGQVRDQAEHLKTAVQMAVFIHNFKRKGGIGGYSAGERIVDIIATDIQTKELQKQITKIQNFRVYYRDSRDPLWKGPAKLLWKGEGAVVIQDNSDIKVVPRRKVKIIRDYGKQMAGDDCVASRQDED

Compound | Activity [1] | Activity [2]
CC[C@H](C)[C@@H](NC(=O)[C@H](Cc1ccccc1)NC(=O)[C@@H](NC(=O)[C@H](C)NC(=O)[C@H](CCSC)NC(=O)[C@H](CCC(N)=O)NC(=O)[C@@H](NC(=O)[C@H](C)NC(=O)[C@@H](N)[C@@H](C)O)C(C)C)C(C)C)C(=O)N[C@@H](Cc1cnc[nH]1)C(=O)N[C@@H](CC(N)=O)C(=O)N[C@@H](Cc1ccccc1)C(=O)N[C@@H](CCCCN)C(=O)N[C@@H](CCCNC(=N)N)C(=O)N[C@@H](CCCCN)C(=O)O | 108% | 99%
CC[C@H](C)[C@H](NC(=O)[C@@H](Cc1ccccc1)NC(=O)[C@@H](NC(=O)[C@H](C)NC(=O)[C@H](CCSC)NC(=O)[C@H](CCC(N)=O)NC(=O)[C@@H](NC(=O)[C@H](C)NC(=O)[C@@H](N)[C@@H](C)O)C(C)C)C(C)C)C(=O)N[C@@H](Cc1cnc[nH]1)C(=O)N[C@@H](CC(N)=O)C(=O)N[C@@H](Cc1ccccc1)C(=O)N[C@@H](CCCCN)C(=O)N[C@@H](CCCNC(=N)N)C(=O)N[C@@H](CCCCN)C(=O)O | 231% | 120%
CC[C@H](C)[C@H](NC(=O)[C@H](Cc1ccccc1)NC(=O)[C@@H](NC(=O)[C@@H](C)NC(=O)[C@H](CCSC)NC(=O)[C@H](CCC(N)=O)NC(=O)[C@@H](NC(=O)[C@H](C)NC(=O)[C@@H](N)[C@@H](C)O)C(C)C)C(C)C)C(=O)N[C@@H](Cc1cnc[nH]1)C(=O)N[C@@H](CC(N)=O)C(=O)N[C@@H](Cc1ccccc1)C(=O)N[C@@H](CCCCN)C(=O)N[C@@H](CCCNC(=N)N)C(=O)N[C@@H](CCCCN)C(=O)O | 194% | 142%
CC[C@H](C)[C@H](NC(=O)[C@H](Cc1ccccc1)NC(=O)[C@@H](NC(=O)[C@H](C)NC(=O)[C@@H](CCSC)NC(=O)[C@H](CCC(N)=O)NC(=O)[C@@H](NC(=O)[C@H](C)NC(=O)[C@@H](N)[C@@H](C)O)C(C)C)C(C)C)C(=O)N[C@@H](Cc1cnc[nH]1)C(=O)N[C@@H](CC(N)=O)C(=O)N[C@@H](Cc1ccccc1)C(=O)N[C@@H](CCCCN)C(=O)N[C@@H](CCCNC(=N)N)C(=O)N[C@@H](CCCCN)C(=O)O | 196% | 127%
CC[C@H](C)[C@H](NC(=O)[C@H](Cc1ccccc1)NC(=O)[C@@H](NC(=O)[C@H](C)NC(=O)[C@H](CCSC)NC(=O)[C@@H](CCC(N)=O)NC(=O)[C@@H](NC(=O)[C@H](C)NC(=O)[C@@H](N)[C@@H](C)O)C(C)C)C(C)C)C(=O)N[C@@H](Cc1cnc[nH]1)C(=O)N[C@@H](CC(N)=O)C(=O)N[C@@H](Cc1ccccc1)C(=O)N[C@@H](CCCCN)C(=O)N[C@@H](CCCNC(=N)N)C(=O)N[C@@H](CCCCN)C(=O)O | 173% | 154%
CC[C@H](C)[C@H](NC(=O)[C@H](Cc1ccccc1)NC(=O)[C@@H](NC(=O)[C@H](C)NC(=O)[C@H](CCSC)NC(=O)[C@H](CCC(N)=O)NC(=O)[C@@H](NC(=O)[C@@H](C)NC(=O)[C@@H](N)[C@@H](C)O)C(C)C)C(C)C)C(=O)N[C@@H](Cc1cnc[nH]1)C(=O)N[C@@H](CC(N)=O)C(=O)N[C@@H](Cc1ccccc1)C(=O)N[C@@H](CCCCN)C(=O)N[C@@H](CCCNC(=N)N)C(=O)N[C@@H](CCCCN)C(=O)O | 209% | 105%
CC[C@H](C)[C@H](NC(=O)[C@H](Cc1ccccc1)NC(=O)[C@@H](NC(=O)[C@H](C)NC(=O)[C@H](CCSC)NC(=O)[C@H](CCC(N)=O)NC(=O)[C@@H](NC(=O)[C@H](C)NC(=O)[C@@H](N)[C@@H](C)O)C(C)C)C(C)C)C(=O)N[C@@H](Cc1cnc[nH]1)C(=O)N[C@@H](CC(N)=O)C(=O)N[C@@H](Cc1ccccc1)C(=O)N[C@@H](CCCCN)C(=O)N[C@@H](CCCNC(=N)N)C(=O)N[C@H](CCCCN)C(=O)O | 110% | 86%
CC[C@H](C)[C@H](NC(=O)[C@H](Cc1ccccc1)NC(=O)[C@@H](NC(=O)[C@H](C)NC(=O)[C@H](CCSC)NC(=O)[C@H](CCC(N)=O)NC(=O)[C@@H](NC(=O)[C@H](C)NC(=O)[C@@H](N)[C@@H](C)O)C(C)C)C(C)C)C(=O)N[C@@H](Cc1cnc[nH]1)C(=O)N[C@@H](CC(N)=O)C(=O)N[C@@H](Cc1ccccc1)C(=O)N[C@@H](CCCCN)C(=O)N[C@H](CCCNC(=N)N)C(=O)N[C@@H](CCCCN)C(=O)O | 169% | 93%
CC[C@H](C)[C@H](NC(=O)[C@H](Cc1ccccc1)NC(=O)[C@@H](NC(=O)[C@H](C)NC(=O)[C@H](CCSC)NC(=O)[C@H](CCC(N)=O)NC(=O)[C@@H](NC(=O)[C@H](C)NC(=O)[C@@H](N)[C@@H](C)O)C(C)C)C(C)C)C(=O)N[C@@H](Cc1cnc[nH]1)C(=O)N[C@@H](CC(N)=O)C(=O)N[C@@H](Cc1ccccc1)C(=O)N[C@H](CCCCN)C(=O)N[C@@H](CCCNC(=N)N)C(=O)N[C@@H](CCCCN)C(=O)O | 120% | 110%
CC[C@H](C)[C@H](NC(=O)[C@H](Cc1ccccc1)NC(=O)[C@@H](NC(=O)[C@H](C)NC(=O)[C@H](CCSC)NC(=O)[C@H](CCC(N)=O)NC(=O)[C@@H](NC(=O)[C@H](C)NC(=O)[C@@H](N)[C@@H](C)O)C(C)C)C(C)C)C(=O)N[C@@H](Cc1cnc[nH]1)C(=O)N[C@@H](CC(N)=O)C(=O)N[C@H](Cc1ccccc1)C(=O)N[C@@H](CCCCN)C(=O)N[C@@H](CCCNC(=N)N)C(=O)N[C@@H](CCCCN)C(=O)O | 156% | 112%
CC[C@H](C)[C@H](NC(=O)[C@H](Cc1ccccc1)NC(=O)[C@@H](NC(=O)[C@H](C)NC(=O)[C@H](CCSC)NC(=O)[C@H](CCC(N)=O)NC(=O)[C@@H](NC(=O)[C@H](C)NC(=O)[C@@H](N)[C@@H](C)O)C(C)C)C(C)C)C(=O)N[C@@H](Cc1cnc[nH]1)C(=O)N[C@H](CC(N)=O)C(=O)N[C@@H](Cc1ccccc1)C(=O)N[C@@H](CCCCN)C(=O)N[C@@H](CCCNC(=N)N)C(=O)N[C@@H](CCCCN)C(=O)O | 92% | 116%
CC[C@H](C)[C@H](NC(=O)[C@H](Cc1ccccc1)NC(=O)[C@@H](NC(=O)[C@H](C)NC(=O)[C@H](CCSC)NC(=O)[C@H](CCC(N)=O)NC(=O)[C@@H](NC(=O)[C@H](C)NC(=O)[C@@H](N)[C@@H](C)O)C(C)C)C(C)C)C(=O)N[C@H](Cc1cnc[nH]1)C(=O)N[C@@H](CC(N)=O)C(=O)N[C@@H](Cc1ccccc1)C(=O)N[C@@H](CCCCN)C(=O)N[C@@H](CCCNC(=N)N)C(=O)N[C@@H](CCCCN)C(=O)O | 105% | 105%
CC[C@H](C)[C@H](NC(=O)[C@H](Cc1ccccc1)NC(=O)[C@@H](NC(=O)[C@H](C)NC(=O)[C@H](CCSC)NC(=O)[C@H](CCC(N)=O)NC(=O)[C@@H](NC(=O)[C@H](C)NC(=O)[C@H](N)[C@@H](C)O)C(C)C)C(C)C)C(=O)N[C@@H](Cc1cnc[nH]1)C(=O)N[C@@H](CC(N)=O)C(=O)N[C@@H](Cc1ccccc1)C(=O)N[C@@H](CCCCN)C(=O)N[C@@H](CCCNC(=N)N)C(=O)N[C@@H](CCCCN)C(=O)O | 141% | 73%
CC[C@H](C)[C@H](NC(=O)[C@H](Cc1ccccc1)NC(=O)[C@@H](NC(=O)[C@H](C)NC(=O)[C@H](CCSC)NC(=O)[C@H](CCC(N)=O)NC(=O)[C@H](NC(=O)[C@H](C)NC(=O)[C@@H](N)[C@@H](C)O)C(C)C)C(C)C)C(=O)N[C@@H](Cc1cnc[nH]1)C(=O)N[C@@H](CC(N)=O)C(=O)N[C@@H](Cc1ccccc1)C(=O)N[C@@H](CCCCN)C(=O)N[C@@H](CCCNC(=N)N)C(=O)N[C@@H](CCCCN)C(=O)O | 226% | 115%
CC[C@H](C)[C@H](NC(=O)[C@H](Cc1ccccc1)NC(=O)[C@H](NC(=O)[C@H](C)NC(=O)[C@H](CCSC)NC(=O)[C@H](CCC(N)=O)NC(=O)[C@@H](NC(=O)[C@H](C)NC(=O)[C@@H](N)[C@@H](C)O)C(C)C)C(C)C)C(=O)N[C@@H](Cc1cnc[nH]1)C(=O)N[C@@H](CC(N)=O)C(=O)N[C@@H](Cc1ccccc1)C(=O)N[C@@H](CCCCN)C(=O)N[C@@H](CCCNC(=N)N)C(=O)N[C@@H](CCCCN)C(=O)O | 152% | 108%
CC[C@H](C)[C@H](NC(=O)[C@H](Cc1ccccc1)NC(=O)[C@@H](NC(=O)[C@H](C)NC(=O)[C@H](CCSC)NC(=O)[C@H](CCC(N)=O)NC(=O)[C@@H](NC(=O)[C@H](C)NC(=O)[C@H](C)N)C(C)C)C(C)C)C(=O)N[C@@H](Cc1cnc[nH]1)C(=O)N[C@@H](CC(N)=O)C(=O)N[C@@H](Cc1ccccc1)C(=O)N[C@@H](CCCCN)C(=O)N[C@@H](CCCNC(=N)N)C(=O)N[C@@H](CCCCN)C(=O)O (H-AAVQMAVFIHNFKRK-OH) | 80% | 83%
CC[C@H](C)[C@H](NC(=O)[C@H](Cc1ccccc1)NC(=O)[C@@H](NC(=O)[C@H](C)N)C(C)C)C(=O)N[C@@H](Cc1cnc[nH]1)C(=O)N[C@@H](CC(N)=O)C(=O)N[C@@H](Cc1ccccc1)C(=O)N[C@@H](CCCCN)C(=O)N[C@@H](CCCNC(=N)N)C(=O)N[C@@H](CCCCN)C(=O)O (H-AVFIHNFKRK-OH) | 111% | 120%
CC[C@H](C)[C@H](NC(=O)[C@H](Cc1ccccc1)NC(=O)[C@@H](NC(=O)[C@H](C)NC(=O)[C@H](CCSC)NC(=O)[C@H](CCC(N)=O)NC(=O)[C@@H](NC(=O)[C@H](C)N)C(C)C)C(C)C)C(=O)N[C@@H](Cc1cnc[nH]1)C(=O)N[C@@H](CC(N)=O)C(=O)N[C@@H](Cc1ccccc1)C(=O)N[C@@H](CCCCN)C(=O)N[C@@H](CCCNC(=N)N)C(=O)N[C@@H](CCCCN)C(=O)O (H-AVQMAVFIHNFKRK-OH) | 141% | 99%
CC[C@H](C)[C@H](NC(=O)[C@@H](N)Cc1ccccc1)C(=O)N[C@@H](Cc1cnc[nH]1)C(=O)N[C@@H](CC(N)=O)C(=O)N[C@@H](Cc1ccccc1)C(=O)N[C@@H](CCCCN)C(=O)N[C@@H](CCCNC(=N)N)C(=O)N[C@@H](CCCCN)C(=O)O (H-FIHNFKRK-OH) | 69% | 133%
CC[C@H](C)[C@H](NC(=O)[C@H](Cc1ccccc1)NC(=O)[C@@H](NC(=O)[C@H](C)NC(=O)[C@@H](N)CCSC)C(C)C)C(=O)N[C@@H](Cc1cnc[nH]1)C(=O)N[C@@H](CC(N)=O)C(=O)N[C@@H](Cc1ccccc1)C(=O)N[C@@H](CCCCN)C(=O)N[C@@H](CCCNC(=N)N)C(=O)N[C@@H](CCCCN)C(=O)O (H-MAVFIHNFKRK-OH) | 88% | 106%
